Source: the supplement of paper PMC10307832

Key:
Assay in all cases: relative viability (nuclei count vs DMSO), 5 days (fraction); higher = more cells survive
[1] = compound: COc1cc2c(Oc3ccc4[nH]c(C)cc4c3F)ncnc2cc1OCCCN1CCCC1 [Cediranib] + CCNC(=O)c1noc(-c2cc(C(C)C)c(O)cc2O)c1-c1ccc(CN2CCOCC2)cc1 [Luminespib] (partner 0.01 µM)
How it was run: (§1)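 The day after seeding in 1536-well plates, lung cancer cell lines were treated by pin tool with a single drug, or with a fixed anchor-drug dose together with five library-drug doses (not always all listed) in √10 steps. After 5 days, a combined fix-and-stain solution (final 0.05% Triton X-100, 1% formaldehyde, 1 ug/ml Hoechst) was added. Nuclei counted on 4× images gave relative viability as treated counts over vehicle counts, reported as the median of duplicate plates.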

[2] = compound: Nc1ncn([C@H]2C[C@H](O)[C@@H](CO)O2)c(=O)n1 [Decitabine] + CS(=O)(=O)CCNCc1ccc(-c2ccc3ncnc(Nc4ccc(OCc5cccc(F)c5)c(Cl)c4)c3c2)o1 [Lapatinib] (partner 2 µM)
How it was run: as §1

[3] = compound: O=C(C[C@H]1NCCC[C@@H]1O)Cn1cnc2cc(Br)c(Cl)cc2c1=O (racemic) [Halofuginone] + CC(C)C[C@H](NC(=O)[C@H](Cc1ccccc1)NC(=O)c1cnccn1)B(O)O [Bortezomib] (partner 0.002 µM)
How it was run: as §1

[4] = compound: O=C(C[C@H]1NCCC[C@@H]1O)Cn1cnc2cc(Br)c(Cl)cc2c1=O (racemic) [Halofuginone] + Cc1nc(NC(=O)N2CCC[C@H]2C(N)=O)sc1-c1ccnc(C(C)(C)C(F)(F)F)c1 [Alpelisib] (partner 2 µM)
How it was run: as §1

Cell Line	relative viability ([1]; first compound 0.04 µM)	relative viability ([1]; first compound 0.1265 µM)	relative viability ([1]; first compound 0.4 µM)	relative viability ([1]; first compound 1.265 µM)	relative viability ([1]; first compound 4 µM)	relative viability ([2]; first compound 0.04 µM)	relative viability ([2]; first compound 0.1265 µM)	relative viability ([2]; first compound 0.4 µM)	relative viability ([2]; first compound 1.265 µM)	relative viability ([2]; first compound 4 µM)	relative viability ([3]; first compound 0.001 µM)	relative viability ([3]; first compound 0.003162 µM)	relative viability ([3]; first compound 0.01 µM)	relative viability ([3]; first compound 0.03162 µM)	relative viability ([3]; first compound 0.1 µM)	relative viability ([4]; first compound 0.001 µM)	relative viability ([4]; first compound 0.003162 µM)	relative viability ([4]; first compound 0.01 µM)	relative viability ([4]; first compound 0.03162 µM)	relative viability ([4]; first compound 0.1 µM)
NCI-H520	0.251	0.262	0.188	0.2	0.308	0.798	0.965	0.499	0.359	0.267	0.723	0.721	0.494	0.579	0.314	0.792	0.767	0.911	0.761	0.295
NCI-H2085	0.506	0.406	0.42	0.421	0.478	0.628	0.646	0.446	0.494	0.445	1.07	1.06	1.04	0.9	0.753	0.901	0.98	0.943	0.873	0.623
NCI-H1651	0.763	0.751	0.786	0.861	0.892	0.799	0.977	0.708	0.676	0.747	0.93	0.972	0.915	0.898	0.903	0.906	0.9	0.889	0.66	0.278
RERF-LC-KJ	1.39	1.15	1.27	1.25	1.25	0.804	0.894	0.704	0.717	0.656	1.23	1.12	1.15	1.17	1.04	0.849	1.09	0.735	0.908	0.831
NCI-H1755	0.556	0.419	0.403	0.232	0.467	1.02	0.991	0.836	0.573	0.481	0.968	0.913	0.94	0.99	0.816	0.866	0.937	0.891	0.923	0.588
NCI-H2126	0.904	1.03	0.873	0.752	0.816	0.749	0.781	0.472	0.564	0.544	1.16	1.08	1.07	1.07	1.11	0.71	0.74	0.696	0.734	0.698
EPLC-272H	0.32	–	0.243	–	0.228	0.749	0.777	–	0.543	0.518	0.772	1.09	0.918	0.98	0.779	1.04	0.893	0.866	1.02	0.798
NCI-H1975	0.166	0.14	0.207	0.194	0.196	0.538	0.456	0.364	0.327	0.29	0.432	0.383	0.402	0.339	0.168	0.684	0.674	0.719	0.302	0.115
NCI-H3122	0.0861	0.09	0.0816	0.0839	0.12	1.05	1.03	1.02	0.816	0.783	1.05	1.06	1	0.954	1.04	0.79	0.801	0.638	0.76	0.781
COR-L 105	0.706	0.726	0.731	0.864	0.68	0.345	0.317	0.328	0.326	0.28	1.01	0.86	0.769	0.674	0.44	1.31	0.934	0.857	0.831	0.629
BEN	0.379	–	0.338	0.201	0.381	0.775	0.678	0.358	0.45	0.348	0.865	0.826	0.865	0.682	0.408	0.974	1.12	1.1	0.975	0.478
NCI-H1915	0.972	0.759	0.787	0.813	0.875	0.608	0.33	0.257	0.189	0.219	0.522	1.05	0.93	1	0.973	1.08	1.11	1.05	0.921	0.929
NCI-H650	0.842	0.831	0.763	1.02	0.774	0.786	0.532	0.339	0.356	0.292	0.903	0.877	0.717	0.694	0.576	1.23	1.35	1.16	1.08	0.675
NCI-H2009	1.09	0.97	0.995	1.12	1.05	0.8	0.599	0.225	0.268	0.276	1.07	1.28	0.95	0.799	0.32	1.23	1.2	1.12	0.969	0.393
COR-L23	0.778	0.768	0.58	0.571	0.626	0.698	0.51	0.459	0.28	0.23	1.15	1.1	0.963	0.965	0.184	0.808	0.823	0.754	0.635	0.118
NCI-H460	0.0397	0.0286	0.0301	0.0321	0.0373	0.902	1.06	0.277	0.18	0.114	1.07	1.09	0.922	0.66	0.0555	0.62	0.495	0.464	0.214	0.0177
